Experimental findings from patent US9353067B2, “Heterocyclic compounds and uses thereof in the treatment of sexual disorders” (ATIR Holding S.A., priority 2011, dated 2016) are described below.

“And” between values parts separate entries of the source, which are not always exact repeats. Equal entries are not always repeated.

Data set [1] can be described thus: Solubility of R-55 in solvents for transdermal formulation. The class given is physicochemical. As for the experimental part:
To this effect, a stable oil-in-water emulsion was developed. Various solvents were tested in order to achieve an R-55 concentration of up to 20 mg/gram in the lipid phase of the emulsion, in order to achieve a total concentration of up to 10 mg/gram R-55.
The following organic solvents which are used in transdermal formulations were tested: […]

The nature of data set [2]: Transdermal administration of R-55 formulation to pigs, plasma R-55. The class given is in vivo, White Landrace female pigs. As for the experimental part: R-55 and related compounds were assayed in the plasma samples using a Waters (USA) Alliance high performance liquid chromatograph coupled with a Waters Micromass ZQ quadruple mass spectrometer (in ESI+ mode) as a detector with Waters Empower chromatographic and mass spectrometric software for chromatographic data acquisition, processing and instrument control.
The tested compound was extracted from plasma using dichloromethane, followed by concentration by evaporating the extract and dissolution in a low volume chromatographic mobile phase.
The instrument was calibrated using plasma spiked with various concentrations of the tested compound. Enrofloxacin (m/z=360.4) was used as an internal standard.
In order to investigate the feasibility of transdermal administration of R-55, the presence of R-55 in plasma was measured following administration to pigs of the exemplary transdermal formulation described in Example 5.
White Landrace female pigs were acclimatized for 5 days prior to application of the formulation. 50 ml of the formulation (containing 500 mg R-55) was applied over a 15×7 cm area of the skin of each pig, in a single dose. In order to facilitate constant transdermal administration for at least 6 hours, a suitable plastic shield, attached by adhesive plaster, was used to cover the whole treated dermal surface area for six hours.
Clinical observations were performed during the six hours following application.
Blood samples were withdrawn from each pig via a jugular vein catheter at the following time points: immediately prior to application (t=0) and 15 minutes, 30 minutes, 45 minutes, 60 minutes, 90 minutes, 2 hours, 4 hours, and 6 hours post-application. All samples were collected in commercially available, EDTA supplemented test-tubes. Blood samples were stored on crushed ice after collection. Plasma was separated by centrifugation (10 minutes at 3000 rotations per minute), within one hour post-sampling. Each plasma sample was divided into two aliquots before freezing. Plasma samples were then stored at −20° C. until being dispatched for LCMS analysis.

Data set [3] concerns Adrenergic α1 receptor. Briefly: Competitive binding, prazosin radioligand. On the set-up: species or system Wistar rat. As for the experimental part: (§1) R-55 (which comprises a 3-hydroxyphenyl moiety) and the structurally related compounds N-108 (2-{[4-(2-ethoxyphenyl)piperazin-1-yl]methyl}quinazolin-4(3H)-one) and B-39 (7-chloro-2-((5,6-dihydro-4-(2-methoxyphenyl)pyridin-1(2H)-yl)methyl)quinazolin-4(3H)-one) were assayed for competitive binding to a variety of receptors, including D4.4 type dopamine receptor, in order to assess their specificity for D4.4 dopamine receptors.
(§2) The receptors were expressed as human recombinant proteins in CHO cells, except for adrenergic α1 and α2 receptors which were expressed in Wistar rat brain and cerebral cortex cells, respectively, and melanocortin MC4 receptor which was expressed in human recombinant HEK-293 cells. Binding was determined using the following radioligands in the presence of various concentrations of the tested compound:
0.25 nM prazosin for adrenergic α1 receptor,
(§3) The binding assays were performed in accordance with procedures described in the literature (Greengrass & Bremner, 1979; Boyajian & Leslie, 1987; Broadhurst, 1988; Lewis, 2001; Sutton, 1995; Dearry, 1990; Zhou, 1990; Grandy, 1989; Hayes, 1992; Sokoloff, 1990; Van Tol, 1991; Van Tol 1992; Sunahara, 1991; Weinshank, 1991; Schioth, 1996; Schioth 1997; Martin & Humphrey, 1994; May, 2003; Wolf & Schutz, 1997).

Data set [4] has as its target CRF1 receptor (Homo sapiens (Human), UniProt P34998). Briefly: Competitive binding, (Tyr0)-CRF radioligand. On the procedure:
as §1, §2
0.05 nM)(Tyr^0)-corticotropin releasing factor (CRF) for corticotropin releasing factor CRF1 receptor,
as §3

The target of data set [5] is Dopamine D5 receptor (Homo sapiens (Human), UniProt P21918). Kind of data set: Competitive binding, SCH-23390 radioligand. As for the experimental part: as §1, §2
Chain of Dopamine D5 receptor (P21918 whole entry): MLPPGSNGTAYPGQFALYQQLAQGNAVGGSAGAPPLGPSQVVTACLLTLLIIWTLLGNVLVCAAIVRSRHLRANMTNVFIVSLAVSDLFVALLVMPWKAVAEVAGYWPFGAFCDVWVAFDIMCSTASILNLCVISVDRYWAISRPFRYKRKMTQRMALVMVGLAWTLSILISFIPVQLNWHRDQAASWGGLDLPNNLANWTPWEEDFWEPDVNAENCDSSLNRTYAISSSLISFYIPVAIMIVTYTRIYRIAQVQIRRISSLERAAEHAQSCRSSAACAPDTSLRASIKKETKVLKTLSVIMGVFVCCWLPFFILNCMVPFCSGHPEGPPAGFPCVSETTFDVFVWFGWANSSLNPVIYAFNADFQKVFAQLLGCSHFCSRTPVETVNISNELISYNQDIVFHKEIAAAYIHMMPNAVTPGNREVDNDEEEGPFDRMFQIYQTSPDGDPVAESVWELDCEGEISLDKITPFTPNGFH
1.4 nM and 2 nM SCH-23390, respectively, for dopamine D1 and D5 receptors,
as §3

Data set [6] concerns the target Serotonin 5-HT2C receptor (Homo sapiens (Human), UniProt P28335). Briefly: Competitive binding, mesulergine radioligand. On the procedure:
as §1, §2
1 nM mesulergine for serotonin 5-HT2C receptor.
as §3

For data set [7], the target named is PARP-1 (Homo sapiens (Human), UniProt P09874). Kind of data set: Universal Chemiluminescent PARP Assay. The class given is biochemical. On the procedure:
In addition, R-55 and its hydrochloride salt were assayed for PARP (poly(ADP-ribose)polymerase) inhibitory activity, as some quinazolinone derivatives, particularly derivatives comprising quinazolinone linked via a three-carbon moiety to substituted pyridinyl and piperazinyl moieties, have been identified as potent PARP inhibitors [U.S. Patent Application Publication No. 2004/0077667; Iwashita et al., FEBS Lett 579:1389-1393(2005); Hattori et al., J Med Chem 47:4151-4154(2004)]. PARP plays a natural role in repair of DNA damage, and inhibition of PARP may lead to undesirable side effects in any treatment of a sexual disorder.
Inhibition of PARP-1 was assayed using a Universal Chemiluminescent PARP Assay (Trevigen, Inc.).
The tested compounds were diluted from 2.1 mg of powder in 25 μl of DMSO. The tested compounds were diluted to 100 μM in 1% DMSO/99% ethanol. 3-Aminobenzamide (3-AB), a commercially available weak PARP inhibitor, was used as a positive control. The activity of PARP was quantified as relative light units (RLU). Each of the tested compounds was assayed twice.
In Assay 1, the 100 μM stock solution was diluted to 40 μM in 1×PARP buffer. The compounds were then serially diluted down to 0.4 μM. Each tested compound was
further diluted 1:4 during the assay, so the final concentrations ranged from 10 μM to 0.1 μM.
In Assay 2, the 100 μM stock was added to 1×PARP buffer to prepare samples with concentrations ranging from 40 μM to 2 μM. A 10 μM stock solution was added to 1×PARP buffer to prepare samples with concentrations of 1 μM and 0.4 μM. Each tested compound was further diluted 1:4 during the assay, so the final concentrations ranged from 10 μM to 0.1 μM.

Chain of PARP-1 (P09874 whole entry): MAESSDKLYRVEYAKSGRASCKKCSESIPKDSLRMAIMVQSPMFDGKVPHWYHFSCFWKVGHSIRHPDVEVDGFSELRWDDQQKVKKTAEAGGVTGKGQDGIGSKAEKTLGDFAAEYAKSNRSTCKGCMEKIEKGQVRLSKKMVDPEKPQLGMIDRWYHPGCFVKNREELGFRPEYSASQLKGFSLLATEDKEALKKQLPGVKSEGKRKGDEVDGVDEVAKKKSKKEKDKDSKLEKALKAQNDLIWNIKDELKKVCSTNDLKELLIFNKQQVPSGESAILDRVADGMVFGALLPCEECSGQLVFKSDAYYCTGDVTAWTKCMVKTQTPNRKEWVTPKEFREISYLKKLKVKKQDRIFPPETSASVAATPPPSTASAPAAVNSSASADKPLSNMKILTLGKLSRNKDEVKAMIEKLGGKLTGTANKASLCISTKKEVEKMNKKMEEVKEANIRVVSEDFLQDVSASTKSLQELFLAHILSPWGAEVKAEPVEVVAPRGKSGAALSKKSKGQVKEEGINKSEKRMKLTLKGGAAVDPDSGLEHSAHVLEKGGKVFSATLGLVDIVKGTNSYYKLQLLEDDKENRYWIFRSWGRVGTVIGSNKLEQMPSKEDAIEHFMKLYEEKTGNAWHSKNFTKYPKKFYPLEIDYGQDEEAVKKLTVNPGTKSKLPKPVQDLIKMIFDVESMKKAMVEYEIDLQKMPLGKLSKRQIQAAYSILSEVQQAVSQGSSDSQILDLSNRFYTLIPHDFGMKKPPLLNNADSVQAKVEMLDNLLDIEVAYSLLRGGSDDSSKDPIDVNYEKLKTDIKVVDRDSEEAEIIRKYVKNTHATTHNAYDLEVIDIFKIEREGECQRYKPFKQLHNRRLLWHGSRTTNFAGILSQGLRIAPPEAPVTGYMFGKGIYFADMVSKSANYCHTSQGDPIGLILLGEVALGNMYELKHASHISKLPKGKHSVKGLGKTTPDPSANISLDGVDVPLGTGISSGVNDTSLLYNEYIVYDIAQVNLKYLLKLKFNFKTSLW
Chain of CRF1 receptor (P34998 24-415): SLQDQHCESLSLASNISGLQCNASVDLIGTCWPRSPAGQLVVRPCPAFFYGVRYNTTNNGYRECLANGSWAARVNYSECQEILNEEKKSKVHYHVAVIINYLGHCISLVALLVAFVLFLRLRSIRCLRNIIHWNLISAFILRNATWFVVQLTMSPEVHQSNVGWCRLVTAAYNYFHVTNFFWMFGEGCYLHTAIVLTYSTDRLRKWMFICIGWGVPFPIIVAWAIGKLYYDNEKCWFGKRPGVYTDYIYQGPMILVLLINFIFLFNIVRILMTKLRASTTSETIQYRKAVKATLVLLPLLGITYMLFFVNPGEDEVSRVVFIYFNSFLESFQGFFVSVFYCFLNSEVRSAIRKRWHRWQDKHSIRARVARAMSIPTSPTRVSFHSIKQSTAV
Chain of Serotonin 5-HT2C receptor (P28335 33-458): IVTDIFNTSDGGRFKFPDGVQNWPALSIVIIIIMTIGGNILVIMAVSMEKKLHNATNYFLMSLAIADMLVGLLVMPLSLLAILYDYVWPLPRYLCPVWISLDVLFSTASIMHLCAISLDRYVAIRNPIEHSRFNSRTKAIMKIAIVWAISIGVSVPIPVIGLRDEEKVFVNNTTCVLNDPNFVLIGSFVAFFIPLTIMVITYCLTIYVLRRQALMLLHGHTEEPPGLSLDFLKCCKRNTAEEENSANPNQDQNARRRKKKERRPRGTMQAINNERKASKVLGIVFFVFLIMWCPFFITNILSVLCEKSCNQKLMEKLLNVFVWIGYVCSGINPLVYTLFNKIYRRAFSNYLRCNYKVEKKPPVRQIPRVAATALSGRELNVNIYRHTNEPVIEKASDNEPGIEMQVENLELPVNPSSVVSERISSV

Take `O=c1[nH]c(CN2CCN(c3cccc(O)c3)CC2)nc2ccccc12` [Compound R-55, 2-((4-(3-hydroxyphenyl)piperazin-1-yl)methyl)quinazolin-4-one]: the “solubility of R-55 in propylene glycol” value in data set [1] (propylene glycol (PG)) is recorded as “less than 5 mg/gram”. Also, the “solubility of R-55 in propylene glycol with phosphatidyl choline” value in data set [1] (weight ratio of 4:1 PG:PC) was determined as 8 mg/gram. The same molecule had a concentration at 0 min in data set [2] (female, White Landrace, pig, plasma, topical, 500 mg, transdermal 500 mg R-55 (50 ml formulation), 0 minutes (immediately prior to application), individual animals #1-#4) of 0 ng/mL. For the same molecule, the concentration at 30 min in data set [2] (female, White Landrace, pig, plasma, topical, 500 mg, transdermal 500 mg R-55, 30 minutes after application, individual animals #1-#4) came out at 16.7 ng/mL. This molecule also displayed a concentration at 4 h in data set [2] (female, White Landrace, pig, plasma, topical, 500 mg, transdermal 500 mg R-55, 4 hours after application, individual animals #1-#4) of 0 ng/mL. This molecule also came in with a concentration at 6 h in data set [2] (female, White Landrace, pig, plasma, topical, 500 mg, transdermal 500 mg R-55, 6 hours after application, individual animals #1-#4) of 0 ng/mL. Besides, the “R-55 concentration (plasma)” value in data set [2] (transdermal 500 mg R-55 (50 ml formulation), 0 minutes (immediately prior to application), individual animals #1-#4) is 0 ng/mL; in data set [2] (transdermal 500 mg R-55, 15 minutes after application, individual animals #1-#4) it was 0 ng/ml (3×) and 10.8 ng/ml; in data set [2] (transdermal 500 mg R-55, 30 minutes after application, individual animals #1-#4), 19.9 ng/mL and 11.8 ng/mL and 15.2 ng/mL; in data set [2] (transdermal 500 mg R-55, 45 minutes after application, individual animals #1-#4), 0 ng/ml (3×) and 10.5 ng/ml; in data set [2] (transdermal 500 mg R-55, 60 minutes after application, individual animals #1-#4), 10.3 ng/ml and 0 ng/ml (2×) and 10.7 ng/ml; in data set [2] (transdermal 500 mg R-55, 90 minutes after application, individual animals #1-#4), 16.8 ng/ml and 0 ng/ml (2×) and 10.1 ng/ml. Moreover, the “R-55 concentration (plasma)” value in data set [2] (transdermal 500 mg R-55, 2 hours after application, individual animals #1-#4) was 14.8 ng/mL and 11.8 ng/mL and 0 ng/mL and 10.7 ng/mL; in data set [2] (transdermal 500 mg R-55, 4 hours after application, individual animals #1-#4), 0 ng/mL; in data set [2] (transdermal 500 mg R-55, 6 hours after application, individual animals #1-#4) it was 0 ng/mL. The Clinical observations result in data set [2] (transdermal 500 mg R-55, six hours following application) is recorded as “No clinical abnormalities were observed”. The “duration of relatively stable concentration of R-55 in plasma after administration” value in data set [2] (transdermal administration) is “at least 2 hours”. The “Competitive binding (%) at 5 μM of tested compound” value is 10% in data set [3], 3% in data set [4], 0% in data set [5] and 5% in data set [6]. In data set [7] (5 μM, average results from two assays), the inhibition (usually the percentage by which the read-out fell short of the control) at 5 µM was 19%. In data set [7] (10 μM, average results from two assays), this molecule registered an inhibition at 10 µM of 21%. The “inhibition of PARP (in words)” value in data set [7] (Assay 1 and Assay 2, 0.1 μM to 10 μM) was “did not exhibit any significant inhibition of PARP”.
